Laboratory results published in ChEMBL document CHEMBL1139071, “Diastereoselective synthesis of glycosylated prolines as alpha-glucosidase inhibitors and organocatalyst in asymmetric aldol reaction” (Bioorg Med Chem Lett, 2007).

Assays:
Rattus norvegicus = species: Rattus norvegicus; assay: Inhibition of rat intestinal alpha-glucosidase at 100 uM
[1] = Inhibition of rat intestinal alpha-glucosidase

CCOC(=O)[C@H]1[C@H](C2O[C@@H]3OC(C)(C)O[C@@H]3[C@H]2OCc2ccccc2)[C@@H](C(=O)OCC)N[C@H]1c1ccc(Br)cc1 (single isomer, unassigned)
inhibition (Rattus norvegicus): 79.3%
IC50 [1]: 64 µM
Ki [1]: 36 µM

CCOC(=O)[C@H]1[C@H](C2O[C@@H]3OC(C)(C)O[C@@H]3[C@H]2OCc2ccccc2)[C@@H](C(=O)OCC)N[C@H]1c1cccc(Cl)c1 (single isomer, unassigned)
inhibition (Rattus norvegicus): 65.5%
IC50 [1]: 96 µM
Ki [1]: 79 µM

C[C@H]1O[C@H](O[C@H]2[C@H](O)[C@@H](O)[C@@H](O[C@H]3[C@H](O)[C@@H](O)C(O)O[C@@H]3CO)O[C@@H]2CO)[C@H](O)[C@@H](O)[C@@H]1N[C@H]1C=C(CO)[C@@H](O)[C@H](O)[C@H]1O (stereo partly drawn)
inhibition (Rattus norvegicus): 39%

CCOC(=O)[C@H]1[C@H](C2O[C@@H]3OC(C)(C)O[C@@H]3[C@H]2OCc2ccccc2)[C@@H](C(=O)O)N[C@H]1c1cccc([N+](=O)[O-])c1 (single isomer, unassigned)
inhibition (Rattus norvegicus): 10.3%

CCOC(=O)[C@H]1[C@H](C2O[C@@H]3OC(C)(C)O[C@@H]3[C@H]2OC)[C@@H](C(=O)OCC)N[C@H]1c1ccc(Br)cc1 (single isomer, unassigned)
inhibition (Rattus norvegicus): 26.8%

CCOC(=O)[C@H]1[C@H](C2O[C@@H]3OC(C)(C)O[C@@H]3[C@H]2OCc2ccccc2)[C@@H](C(=O)O)N[C@H]1c1cccc(Cl)c1 (single isomer, unassigned)
inhibition (Rattus norvegicus): 24.1%

CCOC(=O)[C@H]1[C@H](C2O[C@@H]3OC(C)(C)O[C@@H]3[C@H]2OCc2ccccc2)[C@@H](C(=O)OCC)N[C@H]1c1cccnc1 (single isomer, unassigned)
inhibition (Rattus norvegicus): 29.3%

CCOC(=O)[C@H]1[C@H](C2O[C@@H]3OC(C)(C)O[C@@H]3[C@H]2OCc2ccccc2)[C@@H](C(=O)O)N[C@H]1c1cc(Cl)ccc1Cl (single isomer, unassigned)
inhibition (Rattus norvegicus): 10.5%

CCOC(=O)[C@H]1[C@H](C2O[C@@H]3OC(C)(C)O[C@@H]3[C@H]2OCc2ccccc2)[C@@H](C(=O)O)N[C@H]1c1ccc(Br)cc1 (single isomer, unassigned)
inhibition (Rattus norvegicus): 8.1%

CCOC(=O)[C@H]1[C@H](C2O[C@@H]3OC(C)(C)O[C@@H]3[C@H]2OCc2ccccc2)[C@@H](C(=O)OCC)N[C@H]1c1cc(Cl)ccc1Cl (single isomer, unassigned)
inhibition (Rattus norvegicus): 67.2%
IC50 [1]: 99 µM
Ki [1]: 65 µM

CCOC(=O)[C@H]1[C@H]([C@@H]2O[C@@H]3OC(C)(C)O[C@@H]3[C@H]2OCc2ccccc2)[C@@H](C(=O)OCC)N[C@H]1c1cccc([N+](=O)[O-])c1
inhibition (Rattus norvegicus): 82.7%
IC50 [1]: 61 µM
Ki [1]: 33 µM

CCOC(=O)[C@H]1[C@H](C2O[C@@H]3OC(C)(C)O[C@@H]3[C@H]2OCc2ccccc2)[C@@H](C(=O)OCC)N[C@H]1c1ccc(F)cc1 (single isomer, unassigned)
inhibition (Rattus norvegicus): 43.1%
IC50 [1]: 75 µM
Ki [1]: 40 µM

CCOC(=O)[C@H]1[C@H](C2O[C@@H]3OC(C)(C)O[C@@H]3[C@H]2OCc2ccccc2)[C@@H](C(=O)O)N[C@H]1c1cccnc1 (single isomer, unassigned)
inhibition (Rattus norvegicus): 5.1%
